Test results taken from PubChem BioAssay (NCI).
Several values for one entry are separate records, joined by “and”; a condition that tells them apart may be missing. Equal entries are not always repeated.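 Tested at 5 concentrations; 48 h exposure; 96-well plates; endpoints linearly interpolated, else capped at highest concentration. Here, GI50 denotes the concentration required for 50% inhibition of growth. Definition used: TGI = concentration required for complete inhibition of growth.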

Key:
Assay in all cases: NCI tumour cell line growth inhibition, 48 h
SW-620 colon = test system: SW-620 colon
NCI-H226 lung = test system: NCI-H226 lung
OVCAR-5 ovarian = test system: OVCAR-5 ovarian
CCRF-CEM leukemia = test system: CCRF-CEM leukemia
MDA-MB-435 = test system: MDA-MB-435
SK-MEL-28 melanoma = test system: SK-MEL-28 melanoma
SK-OV-3 ovarian = test system: SK-OV-3 ovarian
SF-295 CNS = test system: SF-295 CNS
HCC-2998 colon = test system: HCC-2998 colon
NCI-H522 lung = test system: NCI-H522 lung

| Structure (SMILES) | GI50 (SW-620 colon) [µM] | TGI (SW-620 colon) | GI50 (NCI-H226 lung) | TGI (NCI-H226 lung) | GI50 (OVCAR-5 ovarian) | TGI (OVCAR-5 ovarian) [µM] | GI50 (CCRF-CEM leukemia) [µM] | TGI (CCRF-CEM leukemia) | GI50 (MDA-MB-435) [µM] | TGI (MDA-MB-435) | GI50 (SK-MEL-28 melanoma) | TGI (SK-MEL-28 melanoma) [µM] | GI50 (SK-OV-3 ovarian) | TGI (SK-OV-3 ovarian) [µM] | GI50 (SF-295 CNS) [µM] | TGI (SF-295 CNS) | GI50 (HCC-2998 colon) | TGI (HCC-2998 colon) | TGI (NCI-H522 lung) [µM] | GI50 (NCI-H522 lung) [µM] |
| --- | --- | --- | --- | --- | --- | --- | --- | --- | --- | --- | --- | --- | --- | --- | --- | --- | --- | --- | --- | --- |
| ClC/C=C/CSc1ncnc2nc[nH]c12 | > 100 | > 100 µM | > 100 µM | > 100 µM | > 100 µM | > 100 | > 100 | > 100 µM | > 100 | > 100 µM | > 100 µM | > 100 | > 100 µM | > 100 | > 100 | > 100 µM | > 100 µM | > 100 µM |  |  |
| Cc1ccccc1NC(=O)C(=O)C(C(=O)c1ccccc1F)C1OC(=O)c2ccccc21 (stereo not drawn) |  | > 100 µM |  | 14.3 µM |  | > 100 |  | 62.4 µM |  |  |  | 35.8 |  | > 100 |  |  |  | 24.8 µM | 19.1 |  |
| O=C(CC1(O)C(=O)Nc2ccc(Cl)cc21)c1ccc(C(=O)NCC2CCC3(CC2)OOC2(CCCCC2)OO3)cc1 (stereo not drawn) | 2.13 | 4.61 µM | 13.1 µM | 41.2 µM | 4.21 µM | 30.9 | 1.22 | 3.99 µM |  |  | 3.33 µM | 17.9 | 2.6 µM | 8.01 | 2.15 | 9.31 µM | 4.27 µM | 21.4 µM | 1.37 | 0.292 |
| N#Cc1c(N)oc2cc3c(C#N)c(N)oc3cc12 |  | > 100 µM |  |  |  | > 100 |  | > 100 µM |  |  |  | > 100 |  | > 100 |  | > 100 µM |  | > 100 µM | > 100 |  |
| O=C1N(c2ccc(Cl)cc2)C(=O)C2(SC=NN2Cc2ccccc2)N1c1ccc(Cl)cc1 (stereo not drawn) |  | > 100 µM |  | > 100 µM |  |  |  | > 100 µM |  |  |  | > 100 |  | > 100 |  |  |  | > 100 µM | > 100 |  |
| CC(C)(C)n1cc(-c2ccnc(NCCCNS(=O)(=O)c3cccc4ccccc34)c2)c(-c2cccc(O)c2)n1 | 1.81 | 3.62 µM | 1.97 µM | 4.36 µM | 1.98 µM | 4.06 | 2.44 | > 100 µM | 1.76 | 3.37 µM | 1.67 µM | 3.24 | 2.63 µM | 7.23 | 1.8 | 3.52 µM | 1.87 µM | 3.37 µM |  |  |
| CC(=O)OC1(C(C)=O)CC2(c3ccccc3)OC1(c1ccccc1)c1ccccc12 (stereo not drawn) |  | > 100 µM |  | 43.2 µM |  | > 100 |  |  |  |  |  | > 100 |  | > 100 |  | > 100 µM |  | > 100 µM | 29.8 |  |
| N#Cc1sc2nc3c(c(-c4ccccc4)c2c1N)CCCC3 |  | > 100 µM |  | > 100 µM |  | > 100 |  | > 100 µM |  |  |  | > 100 |  | > 100 |  | 43.6 µM |  | > 100 µM | > 100 |  |
| COc1cccc(NC(=O)/C(CS(=O)(=O)CCC(C(C)=O)C(C)=O)=N\NC(C)(C)C)c1 |  | > 100 µM |  | > 100 µM |  | > 100 |  | > 100 µM |  |  |  | > 100 |  | > 100 |  |  |  | > 100 µM | > 100 |  |
| COc1ccccc1NC(=O)c1sc2ncn(CCOc3ccccc3)c(=O)c2c1C | 2.33 | > 50 µM |  |  | 39.2 µM | > 50 |  |  |  |  |  |  | > 50 µM | > 50 | 1.69 | > 50 µM |  |  | > 50 | 1.8 |
| CCCCCCNC(=O)CCN(C(=O)O)S(=O)(=O)c1ccc(NC(=O)c2ccccc2)cc1 |  | 30.6 µM |  | > 100 µM |  | > 100 |  | 52.3 µM |  |  |  | > 100 |  | > 100 |  | > 100 µM |  | > 100 µM | > 100 |  |
| CN1CCN(Cc2ccc(NC(=O)c3cncc(C#Cc4c(N)ncc5ccccc45)c3)cc2C(F)(F)F)CC1 | 0.185 | 0.72 µM |  |  | 0.658 µM | 1.45 | 0.14 | 1.47 µM | 0.291 | 0.968 µM | 0.767 µM | 1.48 | 1.13 µM | 2.01 | 0.786 | 1.57 µM | 0.619 µM | 1.26 µM | 1.53 | 0.681 |
| CC(=O)[CH-]C(=O)c1ccccc1.CC(=O)[CH-]C(=O)c1ccccc1.Cl.[O-]CCc1ccccn1.[O-]CCc1ccccn1.[Ti+4] | 29.5 | > 100 µM | 18.7 µM | 78.3 µM | 43.3 µM | > 100 | 15.9 | > 100 µM |  |  | 20.6 µM | 55.1 | 39.5 µM | > 100 | 25.6 | > 100 µM | 26.9 µM | 83.6 µM | 70.6 | 27.8 |
| Nc1ncc(CN2CCCC2)c(-c2ccccc2O)n1 |  | > 750 µM |  | > 750 µM |  | > 750 | > 750 |  |  |  |  | > 750 |  | > 750 |  | > 750 µM |  | > 750 µM | > 750 |  |
| C=C(C)[C@@H]1CC[C@]2(C(=O)O)CC[C@]3(C)[C@H](CC[C@@H]4[C@@]5(C)CCC(N)C(C)(C)[C@@H]5CC[C@]43C)[C@@H]12 (stereo partly drawn) |  |  |  |  |  |  | 2.11 | 5.53 µM | 1.75 | 3.32 µM |  |  | > 100 µM | > 100 |  |  |  |  |  |  |
| NN=C1/C(=C\c2ccccc2)CCC/C1=C/c1ccccc1 |  | > 100 µM |  |  |  | > 100 |  | 45 µM |  |  |  | > 100 |  | > 100 |  | > 100 µM |  | > 100 µM | 36.1 |  |
| NC1(C(=O)O)CCC(C(=O)O)CC1 (stereo not drawn) |  | > 100 µM |  | > 100 µM |  | > 100 |  | > 100 µM |  |  |  | > 100 |  | > 100 |  | > 100 µM |  | > 100 µM | > 100 |  |
| CC1(C)C2CC(=O)C1(C)C(OCc1ccccc1)C2Br (stereo not drawn) |  | 47 µM and > 100 µM | 23.2 µM and > 100 µM | 56.1 µM and > 100 µM | 32.2 µM and > 100 µM | > 100 |  | 49.1 µM and 56.1 µM |  | > 100 µM and 84.7 µM | 15.1 µM and > 100 µM | > 100 | 41.5 µM and > 100 µM | > 100 |  | 70.9 µM and > 100 µM | 27.7 µM and 98.6 µM | 69.3 µM and > 100 µM |  |  |
